Data published in the supplement of paper PMC5908809.

Tests used:
[1] = system: normal NK cells expanded with K562-aAPC; experiment: drug sensitivity score (DSS) (DSS units); higher = more sensitive; extreme values may be limits of the assay; details: 72 h; IL-2 2.5 ng/mL
Protocol: (§1)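 Drug sensitivity and resistance testing on K562-aAPC-expanded normal NK cells: 5 concentrations (10-fold steps over a 10,000-fold range), 72 h at 37 °C, viability by CellTiter-Glo normalised to DMSO and benzethonium chloride controls; DSS from the fitted curve.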

NK-92 (IL-2 2.5 ng/mL) [2] = experiment: as above; details: 72 h
IMC-1 (IL-2 20 ng/mL) [3] = experiment: as above; details: 72 h
KHYG-1 (IL-2 2.5 ng/mL) [4] = experiment: as above; details: 72 h
KAI3 (IL-2 2.5 ng/mL) [5] = experiment: as above; details: 72 h
[6] = system: normal primary NK cells, pool 3 (3 donors) (IL-2 2.5 ng/mL); experiment: as above; details: 72 h
[7] = system: normal primary NK cells, pool 2 (3 donors) (IL-2 2.5 ng/mL); experiment: as above; details: 72 h
[8] = system: normal primary NK cells, pool 1 (3 donors), resting (IL-2 0 ng/mL); experiment: as above; details: 72 h
YT (IL-2 2.5 ng/mL) [9] = experiment: as above; details: 72 h
NKL (IL-2 2.5 ng/mL) [10] = experiment: as above; details: 72 h
SNK-6 (IL-2 2.5 ng/mL) [11] = experiment: as above; details: 72 h
NK-YS (IL-2 2.5 ng/mL) [12] = experiment: as above; details: 72 h
[13] = system: normal primary NK cells, pool 1 (3 donors) (IL-2 2.5 ng/mL); experiment: as above; details: 72 h
DERL-7 (IL-2 2.5 ng/mL) [14] = experiment: as above; details: 72 h
NK-92 (IL-2 2.5 ng/mL) [15] = experiment: percent inhibition of viability; higher = more inhibition; details: 72 h
IMC-1 (IL-2 20 ng/mL) [16] = experiment: as above; details: 72 h
KHYG-1 (IL-2 2.5 ng/mL) [17] = experiment: as above; details: 72 h
KAI3 (IL-2 2.5 ng/mL) [18] = experiment: as above; details: 72 h
[19] = system: normal primary NK cells, pool 3 (3 donors) (IL-2 2.5 ng/mL); experiment: as above; details: 72 h
[20] = system: normal primary NK cells, pool 2 (3 donors) (IL-2 2.5 ng/mL); experiment: as above; details: 72 h
[21] = system: normal primary NK cells, pool 1 (3 donors), resting (IL-2 0 ng/mL); experiment: as above; details: 72 h
YT (IL-2 2.5 ng/mL) [22] = experiment: as above; details: 72 h
NKL (IL-2 2.5 ng/mL) [23] = experiment: as above; details: 72 h
SNK-6 (IL-2 2.5 ng/mL) [24] = experiment: as above; details: 72 h
NK-YS (IL-2 2.5 ng/mL) [25] = experiment: as above; details: 72 h
[26] = system: normal primary NK cells, pool 1 (3 donors) (IL-2 2.5 ng/mL); experiment: as above; details: 72 h
DERL-7 (IL-2 2.5 ng/mL) [27] = experiment: as above; details: 72 h
[28] = system: normal NK cells expanded with K562-aAPC; experiment: as above; details: 72 h, IL-2 2.5 ng/mL
Protocol: as §1

CNC(=O)CN1CCC(Oc2cc3c(Nc4cccc(Cl)c4F)ncnc3cc2OC)CC1 [Sapitinib] (max concentration tested 1000 nM)
Details | drug sensitivity score
DERL-7 (IL-2 2.5 ng/mL) [14] | 0
IMC-1 (IL-2 20 ng/mL) [3] | 0.17
KAI3 (IL-2 2.5 ng/mL) [5] | 0
KHYG-1 (IL-2 2.5 ng/mL) [4] | 0
NK-92 (IL-2 2.5 ng/mL) [2] | 0
NK-YS (IL-2 2.5 ng/mL) [12] | 0
NKL (IL-2 2.5 ng/mL) [10] | 0
SNK-6 (IL-2 2.5 ng/mL) [11] | 8.21
YT (IL-2 2.5 ng/mL) [9] | 0.02
[1] | 1.29
[6] | 0
[7] | 0
[8] | 0
[13] | 0

percent inhibition of viability [%]
Details | 0.1 nM | 1 nM | 10 nM | 100 nM | 1000 nM
DERL-7 (IL-2 2.5 ng/mL) [27] | 3.06 | 0.6 | -4.76 | -5 | -2.82
IMC-1 (IL-2 20 ng/mL) [16] | 0.18 | 0.99 | 5.5 | 4.61 | 15.1
KAI3 (IL-2 2.5 ng/mL) [18] | -6.57 | -1.42 | 0.58 | -5.73 | 11.3
KHYG-1 (IL-2 2.5 ng/mL) [17] | 0.69 | 2.55 | 10.2 | 2.53 | 4.41
NK-92 (IL-2 2.5 ng/mL) [15] | -3.59 | -7.59 | 7.58 | -10.8 | 6.39
NK-YS (IL-2 2.5 ng/mL) [25] | 0.21 | 0.23 | 5.94 | 0.04 | 5.37
NKL (IL-2 2.5 ng/mL) [23] | -6.69 | -1.96 | -5.01 | 0.25 | 5.26
SNK-6 (IL-2 2.5 ng/mL) [24] | 3.05 | 16.8 | 21.3 | 25.7 | 25.6
YT (IL-2 2.5 ng/mL) [22] | 1.69 | 2.8 | 8.28 | 2.39 | 14.2
[19] | -11.4 | -8.98 | 0.1 | -3.48 | 6.33
[20] | -5.36 | 0.45 | 2.66 | 4.26 | 5.15
[21] | 6.72 | -12.5 | 3.2 | -20.9 | -10.5
[26] | 3.61 | -8.96 | 0.62 | -8.22 | 4.72
[28] | 3.94 | 0.06 | -2.58 | 3.86 | 22.1

CCc1cncnc1N1CCN(Cc2nc3ccc(C(F)(F)F)cc3[nH]2)CC1 (max concentration tested 10000 nM)
Details | drug sensitivity score
DERL-7 (IL-2 2.5 ng/mL) [14] | 0.17
IMC-1 (IL-2 20 ng/mL) [3] | 6.88
KAI3 (IL-2 2.5 ng/mL) [5] | 1.03
KHYG-1 (IL-2 2.5 ng/mL) [4] | 5.08
NK-92 (IL-2 2.5 ng/mL) [2] | 5.84
NK-YS (IL-2 2.5 ng/mL) [12] | 4.07
NKL (IL-2 2.5 ng/mL) [10] | 5.1
SNK-6 (IL-2 2.5 ng/mL) [11] | 6.35
YT (IL-2 2.5 ng/mL) [9] | 3.86
[1] | 0
[6] | 0.75
[7] | 3.74
[8] | 6.44
[13] | 5.45

percent inhibition of viability [%]
Details | 1 nM | 10 nM | 100 nM | 1000 nM | 10000 nM
DERL-7 (IL-2 2.5 ng/mL) [27] | 3.43 | 7.18 | -5.16 | -1.27 | 14.8
IMC-1 (IL-2 20 ng/mL) [16] | -6.13 | -3.43 | 3.72 | 11.3 | 90
KAI3 (IL-2 2.5 ng/mL) [18] | -0.12 | -5.66 | -9.54 | -2.26 | 28.4
KHYG-1 (IL-2 2.5 ng/mL) [17] | -4.31 | -8.31 | -0.12 | 17.2 | 49.7
NK-92 (IL-2 2.5 ng/mL) [15] | -1.05 | 10.1 | 6.83 | 20.4 | 62.3
NK-YS (IL-2 2.5 ng/mL) [25] | -2.32 | -5.55 | -2.77 | 9.57 | 47.8
NKL (IL-2 2.5 ng/mL) [23] | -11.3 | -11 | -6.3 | 10.8 | 60.8
SNK-6 (IL-2 2.5 ng/mL) [24] | -7.09 | -9.08 | 8.29 | 30.2 | 30.4
YT (IL-2 2.5 ng/mL) [22] | -1.53 | -2.69 | 2.06 | 11.5 | 41.9
[19] | -9.93 | 7.71 | 7.04 | -6.89 | 26.4
[20] | -7.09 | 4.46 | 7.58 | 8.67 | 44.9
[21] | -8.97 | 13.4 | 10 | 13.6 | 75.6
[26] | -2.5 | 14.2 | 12.3 | 11.8 | 63.6
[28] | -4.68 | -5.08 | -4.29 | 0.89 | 5

CN1CCN(c2ccc3nc(-c4c(N)c5c(F)cccc5[nH]c4=O)[nH]c3c2)CC1 [Dovitinib] (max concentration tested 10000 nM)
Details | drug sensitivity score
DERL-7 (IL-2 2.5 ng/mL) [14] | 0.77
IMC-1 (IL-2 20 ng/mL) [3] | 0
KAI3 (IL-2 2.5 ng/mL) [5] | 1.71
KHYG-1 (IL-2 2.5 ng/mL) [4] | 0
NK-92 (IL-2 2.5 ng/mL) [2] | 0
NK-YS (IL-2 2.5 ng/mL) [12] | 0.43
NKL (IL-2 2.5 ng/mL) [10] | 4.18
SNK-6 (IL-2 2.5 ng/mL) [11] | 0
YT (IL-2 2.5 ng/mL) [9] | 0
[1] | 0
[6] | 0.36
[7] | 0.35
[8] | 4.36
[13] | 0

percent inhibition of viability [%]
Details | 1 nM | 10 nM | 100 nM | 1000 nM | 10000 nM
DERL-7 (IL-2 2.5 ng/mL) [27] | -0.26 | -2.47 | -0.75 | 1.93 | 19.1
IMC-1 (IL-2 20 ng/mL) [16] | -9.28 | -4.03 | -5.76 | -6.55 | -7.61
KAI3 (IL-2 2.5 ng/mL) [18] | 2.03 | -0.28 | 0.82 | 4.98 | 25.2
KHYG-1 (IL-2 2.5 ng/mL) [17] | -5.15 | -3.54 | 0.13 | 3.06 | 2.7
NK-92 (IL-2 2.5 ng/mL) [15] | -5.95 | -5.28 | -3.15 | -3.74 | 0.3
NK-YS (IL-2 2.5 ng/mL) [25] | -1.41 | -0.72 | 1.54 | 8.71 | 13.5
NKL (IL-2 2.5 ng/mL) [23] | -10 | -6.08 | -3.28 | 8.58 | 51.6
SNK-6 (IL-2 2.5 ng/mL) [24] | -4.17 | -5.09 | -18.2 | -14 | -35.3
YT (IL-2 2.5 ng/mL) [22] | 1.17 | 0.22 | 2.9 | 5.68 | 1.67
[19] | -13.4 | -9.6 | -2.56 | -3.69 | 18.9
[20] | -7.55 | -5.64 | -7.93 | -6.84 | 19.6
[21] | -23.8 | -2.86 | 19.4 | 10.6 | 53.9
[26] | -15.6 | -11.3 | -2.48 | -5.56 | 9.92
[28] | -2.16 | -2.71 | 2.91 | -0.42 | 3.96
